Test results: ChEMBL document CHEMBL1125967, “Total synthesis of L-2,2-difluoro-2-deoxy-MYO-inositol 1,4,5-trisphosphate, a potent inhibitor of the enzymes of d-MYO-inositol 1,4,5-trisphosphate metabolism” (Bioorg Med Chem Lett, 1991)

How the values were obtained:
[1] = target: Inositol 1,4,5-trisphosphate-gated calcium channel ITPR3 (Homo sapiens, UniProt Q14573); experiment: Compound was evaluated for its effective dose to inhibit the calcium release as a measure of affinity for Ins(1,4,5)P3 receptor; type: functional
[2] = target: Inositol 1,4,5-trisphosphate receptor (Homo sapiens, UniProt Q14571+Q14573+Q14643); experiment: Compound was evaluated for its effective dose to inhibit the calcium release as a measure of affinity for Inositol 1,4,5-trisphosphate receptor; type: functional
[3] = target: T1, Inositol polyphosphate-5-phosphatase A (Homo sapiens, UniProt Q14642); experiment: Compound was evaluated for binding affinity towards Inositol-1,4,5-trisphosphate 5-phosphatase
T1 sequence (Q14642 whole entry): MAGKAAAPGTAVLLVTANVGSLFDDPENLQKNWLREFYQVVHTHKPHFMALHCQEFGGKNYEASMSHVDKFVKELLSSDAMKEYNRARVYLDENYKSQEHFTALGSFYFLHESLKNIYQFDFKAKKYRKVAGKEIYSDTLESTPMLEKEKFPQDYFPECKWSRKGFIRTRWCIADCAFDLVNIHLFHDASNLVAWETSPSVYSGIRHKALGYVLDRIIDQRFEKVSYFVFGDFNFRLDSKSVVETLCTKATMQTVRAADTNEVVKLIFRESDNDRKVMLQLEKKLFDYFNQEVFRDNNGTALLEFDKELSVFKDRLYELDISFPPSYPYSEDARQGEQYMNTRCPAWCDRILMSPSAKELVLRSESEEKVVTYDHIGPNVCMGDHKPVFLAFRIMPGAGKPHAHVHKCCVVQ

[4] = Inhibition of inositol-trisphosphate phosphorylation; set-up: species or system Rattus norvegicus

Inositol 1,4,5-trisphosphate-gated calcium channel ITPR3, sequence (Q14573 whole entry): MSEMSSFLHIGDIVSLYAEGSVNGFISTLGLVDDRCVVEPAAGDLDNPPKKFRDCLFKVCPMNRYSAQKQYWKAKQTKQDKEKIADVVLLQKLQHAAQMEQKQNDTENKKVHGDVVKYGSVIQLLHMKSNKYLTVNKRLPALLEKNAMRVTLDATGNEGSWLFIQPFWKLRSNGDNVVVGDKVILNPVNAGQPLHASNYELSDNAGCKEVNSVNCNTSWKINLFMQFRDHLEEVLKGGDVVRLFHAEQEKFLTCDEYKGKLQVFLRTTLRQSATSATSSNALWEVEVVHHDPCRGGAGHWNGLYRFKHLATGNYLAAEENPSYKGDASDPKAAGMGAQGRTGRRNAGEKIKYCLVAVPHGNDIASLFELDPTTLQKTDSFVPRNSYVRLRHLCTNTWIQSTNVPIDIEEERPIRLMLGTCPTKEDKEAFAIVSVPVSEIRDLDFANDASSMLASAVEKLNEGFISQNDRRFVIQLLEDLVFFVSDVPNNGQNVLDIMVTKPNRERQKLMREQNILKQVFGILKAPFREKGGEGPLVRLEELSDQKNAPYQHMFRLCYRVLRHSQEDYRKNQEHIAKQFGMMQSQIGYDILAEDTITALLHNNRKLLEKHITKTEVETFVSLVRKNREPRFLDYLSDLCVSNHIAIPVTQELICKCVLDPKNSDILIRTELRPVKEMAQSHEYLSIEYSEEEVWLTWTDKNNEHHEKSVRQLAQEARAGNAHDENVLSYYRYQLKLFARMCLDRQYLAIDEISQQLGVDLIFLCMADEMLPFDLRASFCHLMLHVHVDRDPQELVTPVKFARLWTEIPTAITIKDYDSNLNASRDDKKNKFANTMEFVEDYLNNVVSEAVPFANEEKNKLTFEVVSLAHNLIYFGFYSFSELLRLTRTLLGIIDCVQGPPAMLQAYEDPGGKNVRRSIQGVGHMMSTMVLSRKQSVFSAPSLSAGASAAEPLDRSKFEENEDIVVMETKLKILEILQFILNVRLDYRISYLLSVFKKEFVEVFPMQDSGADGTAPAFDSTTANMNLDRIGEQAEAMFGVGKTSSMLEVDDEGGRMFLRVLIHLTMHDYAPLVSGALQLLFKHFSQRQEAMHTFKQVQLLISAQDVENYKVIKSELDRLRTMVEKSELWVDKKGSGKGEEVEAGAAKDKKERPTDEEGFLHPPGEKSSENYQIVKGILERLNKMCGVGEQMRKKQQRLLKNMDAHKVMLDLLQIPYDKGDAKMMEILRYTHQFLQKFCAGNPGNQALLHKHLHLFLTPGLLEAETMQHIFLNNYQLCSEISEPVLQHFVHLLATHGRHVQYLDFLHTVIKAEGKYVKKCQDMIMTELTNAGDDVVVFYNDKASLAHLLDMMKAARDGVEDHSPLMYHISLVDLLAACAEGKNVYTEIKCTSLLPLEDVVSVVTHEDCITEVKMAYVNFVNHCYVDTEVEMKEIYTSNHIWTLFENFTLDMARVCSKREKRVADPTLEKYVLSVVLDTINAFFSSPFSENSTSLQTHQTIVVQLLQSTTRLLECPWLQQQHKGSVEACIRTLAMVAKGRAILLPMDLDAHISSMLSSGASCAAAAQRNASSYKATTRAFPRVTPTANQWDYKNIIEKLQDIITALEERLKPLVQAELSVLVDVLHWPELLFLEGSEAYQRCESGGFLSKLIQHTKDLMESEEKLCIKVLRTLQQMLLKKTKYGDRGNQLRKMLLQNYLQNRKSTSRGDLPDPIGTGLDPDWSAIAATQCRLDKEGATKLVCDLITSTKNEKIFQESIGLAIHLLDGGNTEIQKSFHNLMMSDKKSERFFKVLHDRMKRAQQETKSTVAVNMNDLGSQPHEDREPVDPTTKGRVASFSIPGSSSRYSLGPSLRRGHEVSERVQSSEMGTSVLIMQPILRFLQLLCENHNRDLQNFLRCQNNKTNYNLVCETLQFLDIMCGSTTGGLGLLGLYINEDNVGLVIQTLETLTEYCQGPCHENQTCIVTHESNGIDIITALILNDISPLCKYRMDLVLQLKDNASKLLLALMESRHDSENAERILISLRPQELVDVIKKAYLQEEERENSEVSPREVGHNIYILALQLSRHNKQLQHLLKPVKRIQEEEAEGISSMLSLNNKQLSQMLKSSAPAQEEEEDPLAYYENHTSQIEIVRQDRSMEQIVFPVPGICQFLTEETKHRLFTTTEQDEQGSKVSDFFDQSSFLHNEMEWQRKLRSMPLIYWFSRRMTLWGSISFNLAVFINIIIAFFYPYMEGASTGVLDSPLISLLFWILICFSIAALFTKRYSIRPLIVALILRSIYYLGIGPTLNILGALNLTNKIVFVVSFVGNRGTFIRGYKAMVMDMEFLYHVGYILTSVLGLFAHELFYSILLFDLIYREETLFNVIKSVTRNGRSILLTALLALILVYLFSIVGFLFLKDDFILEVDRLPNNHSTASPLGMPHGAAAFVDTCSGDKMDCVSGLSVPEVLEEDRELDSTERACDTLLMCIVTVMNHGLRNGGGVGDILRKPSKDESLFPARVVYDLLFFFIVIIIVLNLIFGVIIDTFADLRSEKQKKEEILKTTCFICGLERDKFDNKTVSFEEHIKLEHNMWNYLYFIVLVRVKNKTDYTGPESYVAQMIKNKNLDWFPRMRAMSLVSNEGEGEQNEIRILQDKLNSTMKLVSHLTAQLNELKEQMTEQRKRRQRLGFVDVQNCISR

EC50 [1] | EC50 [2] | Ki [3] | Ki [4] | SMILES
0.21 µM | – | – | – | O=P(O)(O)OC1C(O)C(OP(=O)(O)O)C(F)(F)C(O)C1OP(=O)(O)O (stereo not given)
– | 0.41 µM | – | – | O=P(O)(O)OC1C(O)C(OP(=O)(O)O)C(F)(F)C(O)C1OP(=O)(O)O (stereo in doubt)
– | 53 µM | 26 µM | 11.5 µM | O=P(O)(O)OC1C(O)C(OP(=O)(O)O)C(F)(F)C(O)C1OP(=O)(O)O (stereo in doubt; L-(4b))
